# Measurements from patent US8071576B2, “Method of preventing or treating benign gynaecological disorders” (Pantarhei Bioscience B.V., priority 2001, dated 2011).
# Columns and labels:
# [1] = Clinical study: ethinyl estradiol/levonorgestrel with or without DHEA (Example 2); format: in vivo; settings: 50 mg DHEA daily oral added to ethinyl estradiol/levonorgestrel for 104 days, versus women not receiving DHEA
# Method: A clinical study is conducted in 200 healthy young women. […] Vaginal spotting and bleeding is scored daily by the participants in a diary and the effects on general well being are scored at baseline and at each study visit (every 5 weeks during study drug administration) on a psychometric rating scale. The psychometric rating scale used is especially suited for identifying differences in a population of healthy young women. The scale is a 24-item (placid, sleepy, jittery, intense, lacking confidence, energetic, sensitive, tired, well-balanced, at-rest, drowsy, fearful, lively, sickly, in a good mood, irritable, lethargic, quiet, full-of-pep, optimistic, moody, active, tense, sad), 4-point (yes, definitely; yes, a bit; no, in fact not; no, definitely not) scale to be scored by the person themself. In addition, endocrine measurements are performed in a subgroup of the participants (17β-estradiol, progesterone, total testosterone, LH, FSH and SHBG).
# [2] = Clinical study: 17β-estradiol/norethisterone acetate with or without DHEA (Example 3); format: in vivo; settings: 50 mg DHEA daily oral added to 3 mg 17β-estradiol and 1.5 mg norethisterone acetate for 104 days, versus women not receiving DHEA
# Method: A clinical study is conducted in 100 healthy young women. […] Vaginal spotting and bleeding is scored daily by the participants in a diary. The effects on general well being are scored at baseline and at each study visit (every 5 weeks during study drug administration) using the psychometric rating scale described in example 2.
# Ovulation inhibition is investigated by analysing pregnanediol samples twice a week during 4 weeks between week 7 and 14. In addition, endocrine measurements are performed in a subgroup of the participants (17β-estradiol, progesterone, total testosterone, LH, FSH and SHBG).
# endometrium [3] = settings: DHEA applied on the dorsal skin of ovariectomized rats, all time intervals; cited from earlier work
# androgen receptors = biological target: T1, androgen receptors (Homo sapiens, UniProt P10275); settings: precursors per se, in the female body; cited from earlier work
# T1 sequence (P10275 1-920): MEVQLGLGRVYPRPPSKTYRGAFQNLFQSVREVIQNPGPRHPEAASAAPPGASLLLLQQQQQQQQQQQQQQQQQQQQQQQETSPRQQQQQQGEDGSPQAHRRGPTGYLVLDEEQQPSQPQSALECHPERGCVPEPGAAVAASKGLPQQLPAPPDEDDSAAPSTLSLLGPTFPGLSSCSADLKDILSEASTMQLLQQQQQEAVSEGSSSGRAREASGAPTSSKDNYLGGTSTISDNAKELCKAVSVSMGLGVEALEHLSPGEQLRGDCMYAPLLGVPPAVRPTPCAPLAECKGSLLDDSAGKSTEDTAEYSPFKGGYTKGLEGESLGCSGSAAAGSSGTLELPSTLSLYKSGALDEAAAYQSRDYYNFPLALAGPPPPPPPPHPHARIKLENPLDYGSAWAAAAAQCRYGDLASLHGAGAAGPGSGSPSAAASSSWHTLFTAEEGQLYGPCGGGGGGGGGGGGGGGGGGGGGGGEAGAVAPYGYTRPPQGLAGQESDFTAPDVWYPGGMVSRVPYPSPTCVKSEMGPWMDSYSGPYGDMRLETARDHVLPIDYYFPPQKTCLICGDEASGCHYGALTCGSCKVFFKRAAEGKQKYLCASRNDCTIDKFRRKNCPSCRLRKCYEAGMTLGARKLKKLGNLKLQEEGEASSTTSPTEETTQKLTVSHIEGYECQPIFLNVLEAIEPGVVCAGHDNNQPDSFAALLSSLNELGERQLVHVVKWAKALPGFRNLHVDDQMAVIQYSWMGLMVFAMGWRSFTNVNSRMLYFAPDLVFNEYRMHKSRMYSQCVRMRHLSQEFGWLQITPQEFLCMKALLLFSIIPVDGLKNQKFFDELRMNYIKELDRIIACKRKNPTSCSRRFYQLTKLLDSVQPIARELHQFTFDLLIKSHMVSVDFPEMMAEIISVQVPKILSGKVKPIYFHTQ
# endometrium [4] = test: McPhail test: endometrial differentiation in estradiol-pretreated rabbits; format: in vivo; settings: rabbits pretreated with 5 μg 17β-estradiol s.c. for 6 days; levonorgestrel 8 μg/day oral and/or testosterone 20 mg/day s.c. for 5 days; scores 0-4
# Method: The effects on endometrium of the progestogen levonorgestrel and the androgen testosterone were determined in rabbits according to the method of McPhail (Mc Phail M. K. “The assay of progestin” J Physiol (1934), 83, 145-156). Four groups of each 5 rabbits were pretreated with daily subcutaneous dosages of 5 μg 17β-estradiol for 6 days.
# After pretreatment, 3 groups either received levonorgestrel at an oral dose of 8 μg per day for 5 days, testosterone in a subcutaneous dose of 20 mg per day for 5 days, or levonorgestrel and testosterone together in the aforementioned routes and doses for 5 days. The fourth group was used as the negative control.
# Autopsy was performed after the treatment period and the uterus was weighed and histological sections were prepared from each uterine horn and these were microscopically evaluated according to the McPhail Index (scores 0-4; 0=no differentiation; 4=maximal differentiation).
structure (smiles),measurement,setting,value
"C[C@]12CC[C@H](O)CC1=CC[C@@H]1[C@@H]2CC[C@]2(C)C(=O)CC[C@@H]12 [DHEA, dehydroepiandrosterone]",psychometric scores on items in the domain of energy,[1],generally better scores
same,side effects,[1],less side effects
same,vaginal breakthrough spotting and bleeding,[1],less vaginal breakthrough spotting and bleeding
same,psychometric scores on items in the domain of energy,[2],generally better scores
same,side effects,[2],less side effects
same,vaginal breakthrough spotting and bleeding,[2],less vaginal breakthrough spotting and bleeding
same,state of the endometrium during DHEA treatment,endometrium [3],remained atrophic
CCCCCCCCCCC(=O)O[C@H]1CC[C@H]2[C@@H]3CCC4=CC(=O)CC[C@]4(C)[C@H]3CC[C@]12C [testosterone undecanoate],affinity for the androgen receptors,androgen receptors,virtually no affinity
C[C@]12CC[C@H]3[C@@H](CCC4=CC(=O)CC[C@@]43C)[C@@H]1CC[C@@H]2O [testosterone],McPhail index,endometrium [4],2.9±0.1
C#C[C@]1(O)CC[C@H]2[C@@H]3CCC4=CC(=O)CC[C@@H]4[C@H]3CC[C@@]21CC [levonorgestrel],McPhail index,endometrium [4],2.1±0.4
